Reference: US11147812B2, “Tyrosine analogues derivatives as Rho-kinase inhibitors” (Chiesi Farmaceutici S.p.A., priority 2017, dated 2021)
pKi: −log10 of the molar value.

What was measured:
Rho kinase 1 (ROCK1) = Rho kinase 1 (ROCK1) (Homo sapiens, UniProt Q13464); experiment: In vitro Rho kinase inhibitory activity assay (ADP-Glo), ROCK1; format: biochemical; settings: 10 μM ATP, 25° C., Ki by Cheng-Prusoff
Method: (§1) The effectiveness of compounds of the present invention to inhibit Rho kinase activity can be determined in a 10 μl assay containing 40 mM Tris pH7.5, 20 mM MgCl2 0.1 mg/ml BSA, 50 μM DTT and 2.5 μM peptide substrate (Myelin Basic Protein) using an ADP-Glo kit (Promega). Compounds were dissolved in DMSO such that the final concentration of DMSO was 1% in the assay. All reactions/incubations are performed at 25° C. Compound (2 ul) and either Rho kinase 1 or 2 (4 μl) were mixed and incubated for 30 mins. Reactions were initiated by addition of ATP (4 μl) such that the final concentration of ATP in the assay was 10 μM. After a 1 hour incubation 10 μl of ADP-Glo Reagent was added and after a further 45 minute incubation 20 ul of Kinase Detection Buffer was added and the mixture incubated for a further 30 minutes. The luminescent signal was measured on a luminometer. […] Compounds were tested in dose-response format and the inhibition of kinase activity was calculated at each concentration of compound. To determine the IC50 (concentration of compound required to inhibit 50% of the enzyme activity) data were fit to a plot of % inhibition vs Log10 compound concentration using a sigmoidal fit with a variable slope and fixing the maximum to 100% and the minimum to 0%. To determine the Ki values the Cheng-Prusoff equation was utilized (Ki=IC50/(1+[S]/Km)

Rho kinase 2 (ROCK2) = Rho kinase 2 (ROCK2) (Homo sapiens, UniProt O75116); experiment: In vitro Rho kinase inhibitory activity assay (ADP-Glo), ROCK2; format: biochemical; settings: 10 μM ATP, 25° C., Ki by Cheng-Prusoff
Method: as §1

Chain of Rho kinase 1 (ROCK1) (Q13464 whole entry): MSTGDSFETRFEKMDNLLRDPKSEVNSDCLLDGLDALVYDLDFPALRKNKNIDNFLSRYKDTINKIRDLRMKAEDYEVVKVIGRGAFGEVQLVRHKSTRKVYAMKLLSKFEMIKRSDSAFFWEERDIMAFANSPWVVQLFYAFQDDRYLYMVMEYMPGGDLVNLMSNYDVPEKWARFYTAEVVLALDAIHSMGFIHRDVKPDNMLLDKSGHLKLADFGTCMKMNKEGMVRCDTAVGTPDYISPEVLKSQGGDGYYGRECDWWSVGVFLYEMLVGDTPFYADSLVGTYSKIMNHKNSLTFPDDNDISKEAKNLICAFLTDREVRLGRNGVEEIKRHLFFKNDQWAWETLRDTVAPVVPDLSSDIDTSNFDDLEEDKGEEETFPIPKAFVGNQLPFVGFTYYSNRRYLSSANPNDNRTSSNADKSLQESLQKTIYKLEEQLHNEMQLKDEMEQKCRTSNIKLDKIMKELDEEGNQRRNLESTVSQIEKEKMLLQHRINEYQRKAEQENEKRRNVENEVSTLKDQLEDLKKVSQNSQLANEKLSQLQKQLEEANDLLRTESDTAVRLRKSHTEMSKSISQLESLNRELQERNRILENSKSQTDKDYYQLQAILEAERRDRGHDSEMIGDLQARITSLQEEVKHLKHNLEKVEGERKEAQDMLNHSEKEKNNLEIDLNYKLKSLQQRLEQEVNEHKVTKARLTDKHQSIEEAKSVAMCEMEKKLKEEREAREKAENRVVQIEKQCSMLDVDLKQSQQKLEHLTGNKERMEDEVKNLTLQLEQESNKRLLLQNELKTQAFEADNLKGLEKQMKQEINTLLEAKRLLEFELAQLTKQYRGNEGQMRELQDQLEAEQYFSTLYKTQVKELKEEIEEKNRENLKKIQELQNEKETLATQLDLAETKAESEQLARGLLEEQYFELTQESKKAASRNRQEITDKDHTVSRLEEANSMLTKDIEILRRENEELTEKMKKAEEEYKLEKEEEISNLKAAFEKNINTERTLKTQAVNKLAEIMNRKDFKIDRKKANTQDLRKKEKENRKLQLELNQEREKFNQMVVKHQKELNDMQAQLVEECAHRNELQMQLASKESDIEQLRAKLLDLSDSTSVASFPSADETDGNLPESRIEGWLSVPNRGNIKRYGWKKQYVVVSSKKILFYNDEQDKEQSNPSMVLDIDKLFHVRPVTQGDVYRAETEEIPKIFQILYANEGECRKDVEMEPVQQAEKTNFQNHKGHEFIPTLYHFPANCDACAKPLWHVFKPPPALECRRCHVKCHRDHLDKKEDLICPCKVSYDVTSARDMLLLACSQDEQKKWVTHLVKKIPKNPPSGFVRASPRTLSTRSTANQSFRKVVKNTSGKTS
Chain of Rho kinase 2 (ROCK2) (O75116 whole entry): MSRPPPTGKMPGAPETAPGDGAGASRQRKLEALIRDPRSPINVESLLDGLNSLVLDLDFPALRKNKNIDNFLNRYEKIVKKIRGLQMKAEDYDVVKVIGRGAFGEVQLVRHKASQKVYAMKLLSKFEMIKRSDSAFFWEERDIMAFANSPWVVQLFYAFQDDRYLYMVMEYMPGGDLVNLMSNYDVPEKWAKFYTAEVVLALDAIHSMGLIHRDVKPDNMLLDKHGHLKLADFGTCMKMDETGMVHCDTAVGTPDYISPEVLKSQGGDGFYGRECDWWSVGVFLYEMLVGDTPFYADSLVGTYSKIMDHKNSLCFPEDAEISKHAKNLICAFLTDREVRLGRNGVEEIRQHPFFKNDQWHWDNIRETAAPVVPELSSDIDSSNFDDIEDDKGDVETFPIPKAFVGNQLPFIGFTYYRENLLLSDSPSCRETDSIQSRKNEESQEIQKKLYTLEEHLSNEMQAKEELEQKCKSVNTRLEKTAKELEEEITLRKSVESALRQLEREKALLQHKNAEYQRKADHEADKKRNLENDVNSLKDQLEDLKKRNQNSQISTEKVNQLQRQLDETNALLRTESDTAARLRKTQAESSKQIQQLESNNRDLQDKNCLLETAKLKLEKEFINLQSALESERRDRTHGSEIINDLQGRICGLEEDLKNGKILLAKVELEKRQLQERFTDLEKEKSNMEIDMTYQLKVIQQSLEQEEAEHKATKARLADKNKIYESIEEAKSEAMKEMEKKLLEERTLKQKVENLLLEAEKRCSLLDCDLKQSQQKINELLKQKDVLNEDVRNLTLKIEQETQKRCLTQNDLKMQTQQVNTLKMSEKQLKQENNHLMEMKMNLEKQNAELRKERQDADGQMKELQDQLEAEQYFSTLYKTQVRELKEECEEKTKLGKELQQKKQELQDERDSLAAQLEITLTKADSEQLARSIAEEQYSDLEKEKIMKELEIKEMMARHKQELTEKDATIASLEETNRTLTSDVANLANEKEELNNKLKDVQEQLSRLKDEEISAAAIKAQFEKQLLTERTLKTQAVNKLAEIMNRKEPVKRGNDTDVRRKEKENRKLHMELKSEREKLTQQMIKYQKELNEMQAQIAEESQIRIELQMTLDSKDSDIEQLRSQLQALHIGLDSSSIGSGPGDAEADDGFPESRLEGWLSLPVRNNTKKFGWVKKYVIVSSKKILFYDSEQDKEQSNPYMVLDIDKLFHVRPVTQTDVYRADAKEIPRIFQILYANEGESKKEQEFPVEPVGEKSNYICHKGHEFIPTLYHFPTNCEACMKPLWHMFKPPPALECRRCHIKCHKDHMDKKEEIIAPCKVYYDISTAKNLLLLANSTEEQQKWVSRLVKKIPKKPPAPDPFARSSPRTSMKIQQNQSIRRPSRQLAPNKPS

Row | Structure (SMILES) | pKi (Rho kinase 1 (ROCK1)) | pKi (Rho kinase 2 (ROCK2))
1 | CN(C)CCCN1CNCC(Cc2ccc(Oc3ccnc4[nH]cc(C#N)c34)cc2)C1=O (stereo not shown) [Example 45, 4-(4-((1-(3-(dimethylamino)propyl)-6-oxohexahydropyrimidin-5-yl)methyl)phenoxy)-1H-pyrrolo[2,3-b]pyridine-3-carbonitrile] | 7.52 to 8.52 | 7.52 to 8.52
2 | CN1CCC(NC(=O)C(CN)Cc2ccc(Oc3ccnc4[nH]cc(C#N)c34)cc2)CC1 (stereo not shown) [Example 46, 3-amino-2-(4-((3-cyano-1H-pyrrolo[2,3-b]pyridin-4-yl)oxy)benzyl)-N-(1-methylpiperidin-4-yl)propanamide] | > 8.52 | > 8.52
3 | CN1CCC(N2CNCC(Cc3ccc(Oc4ccnc5[nH]cc(C#N)c45)cc3)C2=O)CC1 (stereo not shown) [Example 47, 4-(4-((1-(1-methylpiperidin-4-yl)-6-oxohexahydropyrimidin-5-yl)methyl)phenoxy)-1H-pyrrolo[2,3-b]pyridine-3-carbonitrile] | 7.52 to 8.52 | 7.52 to 8.52
4 | CN1C[C@@H]2C[C@H]1CN2C(=O)C(CN)Cc1ccc(Oc2ccnc3[nH]cc(C#N)c23)cc1 (stereo partly drawn) [Example 48, 4-(4-(2-(aminomethyl)-3-((1S,4S)-5-methyl-2,5-diazabicyclo[2.2.1]heptan-2-yl)-3-oxopropyl)phenoxy)-1H-pyrrolo[2,3-b]pyridine-3-carbonitrile] | 7.52 to 8.52 | > 8.52
5 | N#Cc1c[nH]c2nccc(Oc3ccc(CC(CN)C(=O)N4CCN(Cc5ccccn5)CC4)cc3)c12 (stereo not shown) [Example 49, 4-(4-(2-(aminomethyl)-3-oxo-3-(4-(pyridin-2-ylmethyl)piperazin-1-yl)propyl)phenoxy)-1H-pyrrolo[2,3-b]pyridine-3-carbonitrile] | 7.52 to 8.52 | > 8.52
